Source: BindingDB's records for doi:10.1016/j.bmc.2016.12.017 (Sunshine Lake Pharma, 2017)

Experiment: Inhibition of hepatitis B virus capsid assembly infected in human HepG2.215 cells assessed as reduction in viral DNA replication measured on day 7 by real time PCR analysis

SMILES	EC50 [nM]
CCOC(=O)C1=C(CN2CCOCC2)NC(c2nccn2C)=NC1c1ccc(F)cc1Br (configuration not stated)	20
CCOC(=O)C1=C(CN2CCOCC2)NC(c2nccs2)=NC1c1ccc(F)cc1F (configuration not stated)	26
CCOC(=O)C1=C(CN2CC[S+]([O-])CC2)NC(c2nccs2)=NC1c1ccc(F)cc1Cl (configuration not stated)	100
CCOC(=O)C1=C(CN2CCCCC2)NC(c2nccs2)=NC1c1ccc(F)cc1Cl (configuration not stated)	3500
CCOC(=O)C1=C(COCCOC)NC(c2nccs2)=NC1c1ccc(F)cc1Cl (configuration not stated)	200
CCOC(=O)C1=C(CO)NC(c2nccs2)=NC1c1ccc(F)cc1Cl (configuration not stated)	> 16400
CCOC(=O)C1=C(CN2CCOCC2)NC(c2nnc(C)s2)=NC1c1ccc(F)cc1Br (configuration not stated)	> 16400
CCOC(=O)C1=C(CN2CCOCC2)NC(c2nccs2)=NC1c1ccc(F)cc1-c1ccc(OC)cc1 (configuration not stated)	> 16400
CCOC(=O)C1=C(CN2CCOCC2)NC(c2nccs2)=NC1c1ccc(F)cc1-c1ccc(C(F)(F)F)cc1 (configuration not stated)	> 16400
CCOC(=O)C1=C(CN2CCOCC2)NC(c2nccs2)=NC1c1ccccc1F (configuration not stated)	74
CCOC(=O)C1=C(CN2CCOCC2)NC(c2nccs2)=NC1c1ccccc1Br (configuration not stated)	10
CCOC(=O)C1=C(CN2CCS(=O)(=O)CC2)NC(c2nccs2)=NC1c1ccc(F)cc1Cl (configuration not stated)	80
CCOC(=O)C1=C(CN2CCSCC2)NC(c2nccs2)=NC1c1ccc(F)cc1Cl (configuration not stated)	250
CCOC(=O)C1=C(CN2CCNCC2)NC(c2nccs2)=NC1c1ccc(F)cc1Cl (configuration not stated)	> 16400
CCOC(=O)C1=C(CNCCO)NC(c2nccs2)=NC1c1ccc(F)cc1Cl (configuration not stated)	900
CCOC(=O)C1=C(CN)NC(c2nccs2)=NC1c1ccc(F)cc1Cl (configuration not stated)	5100
CCCOCC1=C(C(=O)OCC)C(c2ccc(F)cc2Cl)N=C(c2nccs2)N1 (configuration not stated)	1200
CCOCC1=C(C(=O)OCC)C(c2ccc(F)cc2Cl)N=C(c2nccs2)N1 (configuration not stated)	800
CCOC(=O)C1=C(COC)NC(c2nccs2)=NC1c1ccc(F)cc1Cl (configuration not stated)	> 16400

SMILES	EC50 [nM]
CC1=C(C(=O)NN)C(c2ccc(F)cc2Cl)N=C(c2nccs2)N1 (configuration not stated)	> 16400
CNC(=O)C1=C(C)NC(c2nccs2)=NC1c1ccc(F)cc1Cl (configuration not stated)	> 16400
CC1=C(C(N)=O)C(c2ccc(F)cc2Cl)N=C(c2nccs2)N1 (configuration not stated)	> 16400
CC1=C(C(=O)O)C(c2ccc(F)cc2Cl)N=C(c2nccs2)N1 (configuration not stated)	> 16400
CC1=C(C(=O)OC(C)(C)C)C(c2ccc(F)cc2Cl)N=C(c2nccs2)N1 (configuration not stated)	> 16400
CC1=C(C(=O)OC(C)C)C(c2ccc(F)cc2Cl)N=C(c2nccs2)N1 (configuration not stated)	> 16400
CCOC(=O)C1=C(C)NC(c2nccs2)=NC1c1ccc(F)cc1Cl (configuration not stated)	150
COC(=O)C1=C(C)NC(c2nccs2)=NC1c1ccc(F)cc1Cl (configuration not stated)	250
COC(=O)C1=C(C)NC(c2nccs2)=N[C@H]1c1ccc(F)cc1Cl	100
CCOC(=O)C1=C(CN2CCOCC2)NC(n2nnc(C)n2)=NC1c1ccc(F)cc1Br (configuration not stated)	> 16400
CCOC(=O)C1=C(CN2CCOCC2)NC(n2cnnn2)=NC1c1ccc(F)cc1Br (configuration not stated)	> 16400
CCOC(=O)C1=C(CN2CCOCC2)NC(c2ncn(C)n2)=NC1c1ccc(F)cc1Br (configuration not stated)	4300
CCOC(=O)C1=C(CN2CCOCC2)NC(c2ncc(F)cc2F)=NC1c1ccc(F)cc1Br (configuration not stated)	6
CCOC(=O)C1=C(CN2CCOCC2)N(C)C(c2nccs2)=NC1c1ccc(F)cc1Cl (configuration not stated)	> 16400
Nc1ncnc2c1ncn2CCOCP(=O)(O)O [9-[2-phosphonomethoxyethyl]adenine]	83
Cc1cn([C@@H]2C[C@@H](O)[C@H](CO)O2)c(=O)[nH]c1=O [CHEBI:63624]	819
C[C@H](Cn1cnc2c(N)ncnc21)OCP(=O)(O)O [CHEBI:63625]	242
C=C1[C@H](CO)[C@@H](O)C[C@@H]1n1cnc2c(=O)[nH]c(N)nc21 [CHEBI:473990]	0.24
